# Data published in patent US20240424115A1, “LONG-ACTING INTERLEUKIN-15 RECEPTOR AGONISTS AND RELATED IMMUNOTHERAPEUTIC COMPOSITIONS AND METHODS” (Nektar Therapeutics, priority 2017, published 2024).
# Legend:
# [1] = Single dose PK study in rats (plasma concentration); format: in vivo; conditions: rats, single i.v. 0.3, 0.15, 0.075 mg/kg or s.c. 0.15 mg/kg
# Method: Following administration, blood was collected at days 1-7 post administration (with multiple samples collected over the first 24 hours following administration). […]
# CD4, CD8, and NK cells [2] = experiment: In vivo IL-15 signaling (STAT5 phosphorylation in lymphocytes) in mice; conditions: C57BL/6 mice, single i.v. 0.3 mg/kg
# Text: Conventional approaches, such as those involving radiolabeling a compound, administering the compound in vivo, and determining its clearance, can be used to assess whether a compound proposed to be a long-acting, IL-15 R agonist is “long-acting” (i.e., has a clearance that is longer than that of IL-15 administered in the same in vivo system). For the purposes herein, the long acting nature of a long-acting IL-15 R agonist may be, and is typically determined using flow cytometry to measure STAT5 phosphorylation in lymphocytes at various time points after administration of the agonist to be evaluated in mice. As a reference, the signal is lost by around 24 hours with IL-15, but is sustained for a period greater than that for a long-acting IL-15 agonist.
# Mice were dosed as described in Example 6 above to assess in-vivo signaling as assessed by degree of STAT5 phosphorylation. Degree of STAT5 phosphorylation in various lymphocytes (CD4, CD8, and NK cells) was assessed by staining whole blood for leukocyte surface markers and pSTAT5, followed by measurement by flow cytometry. Results are shown in FIGS. 8A and 8 B for IL-15 and for Conjugate 2, respectively.
# [PK methods previously described herein].
# STAT5 phosphorylation in CD4 T cells was determined by using a CD3+CD4+CD8-pSTAT5+ marker combination. FIG. 43 is a plot of pSTAT5 phosphorylation percent positivity within CD4 T cells over time (at 0.25, 1, 6, 24, 48, 72, 96 and 120 hours post administration) at a dose of 0.03 mg/kg (blue, solid squares) or 0.3 mg/kg (orange, solid circles). The vehicle over time (black) and pre-dose (open circles) levels are also shown.
# CD4, CD8, and NK cells [3] = experiment: In vivo IL-15 signaling (STAT5 phosphorylation in lymphocytes) in non-human primates; set-up: species or system cynomolgus monkeys; conditions: cyno, single i.v. 0.5 mg/kg
# Method: In the study, cynomolgus monkeys (cyno), one female and one male, were each intravenously administered a single dose of Conjugate 2 (0.5 mg/kg). A series of blood samples were taken from each animal both prior to treatment (day-6 and-1) and at multiple intervals following treatment for assessment by flow cytometry of STAT5 phosphorylation in various types of lymphocytes (CD4, CD8, and NK cells). Results are provided in FIGS. 9A (CD4), 9B (CD8), and 9C (NK).
# (§1) Cynomolgus monkeys (n=3-4 males), were administered a single intravenous injection of Conjugate 1 at 0.003, 0.01, 0.1 mg/kg or a vehicle control. Blood samples were collected at the indicated time points pre and post dose (−5, −2, 1, 2, 3, 4, 5, 6, 7, 10, 14, 17 days) and subjected to flow cytometric analysis to examine pharmacodynamic effects within lymphocyte populations. Proliferation (% Ki-67) and JAK/STAT signaling (% pSTAT5) for NK cells, CD8 T cells, and CD4 T cells were examined, with the results shown in FIGS. 45A-C and FIGS. 46A-C, respectively.
# [4] = tested on: NK cells, CD8 T cells, CD4 T cells; experiment: In vivo PD study in non-human primates: lymphocyte cell numbers and proliferation; set-up: species or system cynomolgus monkeys; conditions: cyno, single i.v. 500 μg/kg
# Method: In the study, cynomolgus monkeys, one female and one male, were administered 500 μg/kg of Conjugate 2 intravenously. A series of blood samples were taken from each animal before treatment (day-6 and -1) and at multiple intervals following single dose treatment for assessment by flow cytometry of lymphocyte cell numbers (NK cells, CD8 T-cells, etc.) and activation.
# NK cell counts were determined to assess the ability of exemplary Conjugate 2 to induce sustained NK cell proliferation in non-human primates; results are shown in FIGS. 16A and 16B. NK cells and their proliferation in blood from cynomolgus monkey were identified by flow cytometry. Acquisition and analysis of NK cells (CD45+ CD3− CD16+) and their proliferation status (CD45+CD3−CD16+ Ki67+) were conducted using BD FACS DIVA software. Absolute values for NK cells and proliferating NK cells were used to calculate % Ki67 positivity within the NK population. Pre and post-treatment values were plotted using Prism.
# CD8 T cell counts were also determined as illustrated in FIG. 17 for each animal from pre-dose to 14 days post-administration. Specifically, CD8 T cells were defined as CD45+CD3+CD4−CD8+. Blood from the monkeys was also subject to immunophenotyping as previously described. In monkey, CD8 T cells increased in a sustained manner, an effect lasting for at least 10 days. This plot further exemplifies the ability of an exemplary long acting IL-15 receptor agonist, Conjugate 2, to induce proliferation and sustained increases in numbers of CD8 T-cells post-administration.
# In monkey, CD8 TEM cells were defined as CD45+CD3+CD4−CD8+CD45Ra−CD197− and CD8 Tcm were defined as CD45+CD3+CD4−CD8+CD45Ra−CD197+. Immunophenotyping was conducted by flow cytometry with sample acquisition on DIVA software and data analysis on Flowjo software. Graphs were plotted using Prism. […] The figures indicate that both CD8 effector and central memory T cell populations proliferate in response to exemplary Conjugate 2.
# In this study, cynomolgus monkeys (cyno), one female and one male, were each intravenously administered a single dose of Conjugate 1 (0.1 mg/kg). A series of blood samples were taken from each animal over a 14-day time course and subjected to flow cytometry analysis of various lymphocytes (CD8 T cells, Ki-67 percent positivity within total CD8, CD8 central memory T cells (TCM) and CD8 effector memory T cells (Tem), NK cells and Ki-67 percent positivity of NK cells).
# as §1
# In cynomolgus monkey, CD8 naïve and memory subpopulations were defined by CD45Ra, CD197 and CD95. […] Within the CD8 Tem, […] and Tscm populations, Conjugate 1 induced robust % Ki-67 expression in a dose dependent manner with detectable increases in proliferation marker positivity starting as early as day 2, reaching a maximum at day 5 and returning to baseline between days 10-14. The Ki-67 expression and kinetics within the CD8 populations support the sustained increase in CD8 T cell numbers shown in Example 27 and FIGS. 47A-D.
# CD8 T cells = experiment: Immunophenotypic markers in blood and spleen on Day 13 of the CT-26 lung metastasis study; format: in vivo, Balb/c mice
# Method: Blood and spleenocytes were analyzed on Day 13 for the changes in the immunophenotypic markers using flow cytometry and marker antibodies conjugated with various fluorochromes. Conjugate 2 administered at 0.3, 1, and 3 mg/kg induced a dose-dependent increase of CD8 T cells 1.5, 2.5, and 3.3-fold versus vehicle in blood, respectively. Similar observations were made in spleen with increases of 1.3, 1.7, and 2.2-fold at 0.3, 1, and 3 mg/kg dose levels versus vehicle.
# CT-26 cells = experiment: CT-26 lung metastasis model
# Method: At day 0, 6-8 week-old female Balb/c mice were inoculated with 1×10^5 mouse CT-26 cells by tail vein injection. On day 1, post 24 h of CT-26 cells being administered, mice were divided into ten groups. […] Each group was assigned one intervention as follows: vehicle, phosphate buffered saline (Group A); native IL-15 alone (Group B); Conjugate 2 at a dose of 0.03 mg/kg (Group C); Conjugate 2 at a dose of 0.1 mg/kg (Group D); Conjugate 2 at a dose of 0.3 mg/kg (Group E); Conjugate 2 at a dose of 1.0 mg/kg (Group F); Conjugate 2 at a dose of 3.0 mg/kg (Group G); for Conjugate 1: vehicle, phosphate buffered saline (Group H); Conjugate 1 at a dose of 0.03 mg/kg (Group I) and Conjugate 1 at a dose of 0.3 mg/kg (Group J). Animals were dosed at days 1, 5, and 10.
# Post 13 days from the date of CT-26 tumor cells administration, mice were anesthetized, and blood and spleen cells were collected for further analysis of immunophenotype markers, while lungs were fixed for 24-48 h in Bouins solution containing picric acid and formaldehyde.
# The number of lung tumor nodules were counted under a dissection per each lung and mean of lung nodules for each group was determined. The statistical significance was also obtained between the vehicle group vs intervention groups using unpaired students t test.
# Balb/c mice received tail vein injection of 1×10^5 CT-26 colorectal carcinoma cells. The following day, mice (n=9/group) were treated weekly, twice, with Conjugate 1 (0.03 or 0.3 mg/kg) or vehicle control. Five days after the second injection, mice were humanely sacrificed and lung nodules were counted.
# CT-26 mice (n=7-11/group) were injected with anti-asialo GM1 to deplete NK cells or two different controls (lgG or PBS), then injected with 1×10^5 CT-26 tumor cells. Mice were then treated with Conjugate 2 at 0.3 mg/kg dosed on days 1, 5 and 10 post tumor cell injection or vehicle control. Mice were sacrificed and lung nodules were counted three days after the last day of treatment.
# [5] = Single dose PK study in mice (plasma concentration); conditions: C57BL/6 mice, single i.v. 0.3 mg/kg
# Method: C57BL/6 mice (n=3/group) were administered a single intravenous dose of IL-15 (control) at 0.3 mg/kg) or of Conjugate 2 at a dose of 0.3 mg/kg. Following administration, blood samples were collected at various time points post administration (24 hours, 48 hours, 78 hours, 96 hours). […] Finally, at each time point, plasma concentration of drug was determined.
# For PK analysis, Conjugate 1 was administered as a single intravenous dose at 0.3 mg/kg in balb/c mice (n=3). Following administration, mice were humanely sacrificed and plasma was collected 24, 48, 72, 96, 120 and 144 hours post treatment. From a separate study, mice were administered a single intravenous dose of IL-15 (0.5 mg/kg). Samples from these mice were collected at the indicated time points within 6 hours of treatment.
# Balb/c mice (n=3/group) were administered a single intravenous dose of IL-15 (500 ug/kg) or of Conjugate 1 at 10, 30, 100, 300 and 1000 μg/kg. Blood samples were collected at the indicated time points post administration (conjugate 1:24, 48, 72, 96, 120, 144, 240 hours; IL-15 control: 0.03, 0.08, 0.25, 0.5, 1, 2, 4, 6, 8, hours) and plasma concentration of drug was determined.
# IL-15Rα:Fc [6] = experiment: SPR (BIAcore), compared with unmodified IL-15
# IL-15Rα:Fc [7] = experiment: SPR (BIAcore), IL-15Rα:Fc captured by immobilised goat anti-human Fc, KD from kd/ka
# IL-15Rα:Fc [8] = experiment: SPR (BIAcore), IL-15Rα:Fc captured by immobilised goat anti-human Fc, test article injected in 3-fold dilutions from 10 µM
# IL-15Rα:Fc, sequence (Q13261 31-205): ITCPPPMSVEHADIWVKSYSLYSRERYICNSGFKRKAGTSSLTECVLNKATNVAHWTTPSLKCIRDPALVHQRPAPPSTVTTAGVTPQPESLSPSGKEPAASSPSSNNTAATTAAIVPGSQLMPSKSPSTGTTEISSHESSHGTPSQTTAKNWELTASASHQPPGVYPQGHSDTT
substance,measurement,setting,value
N-(2-methoxyPEG-ethyl)-7-(4-((2-methoxyPEG-ethyl) amino)-4-oxobutyl)-9-ethyl-9 H-fluorene-4-carboxamide carbamate-IL-15 [Conjugate 2],exposure to drug,[1],sustained and dose-proportional exposure to drug
same,duration of in-vivo STAT5 phosphorylation activity in NK and CD8 cells,"CD4, CD8, and NK cells [2]",> 72 h
same,return of STAT5 phosphorylation to near pre-dose levels,"CD4, CD8, and NK cells [3]",5 to 10 days
same,CD8 TEM and TCM cell counts,[4],induces a significant and sustained increase in CD8 effector and central memory T cell populations
same,"NK cell proliferation (Ki67, cell counts)",[4],effective to induce sustained NK cell proliferation
same,duration of CD8 T cell increase,[4],at least 10 days
same,increase of Bcl-2+MFI in CD8,CD8 T cells; blood and spleen,≤ 1.5 fold
same,increase of CD8 T cells versus vehicle,"CD8 T cells; blood, 0.3 mg/kg",1.5 fold
same,increase of CD8 T cells versus vehicle,"CD8 T cells; blood, 1 mg/kg",2.5 fold
same,increase of CD8 T cells versus vehicle,"CD8 T cells; blood, 3 mg/kg",3.3 fold
same,CD8 T cell proliferation (Ki-67) change compared to vehicle,"CD8 T cells; blood, high dose 3 mg/kg",5.3 fold
same,CD8 T cell proliferation (Ki-67) change compared to vehicle,"CD8 T cells; blood, low dose 0.3 mg/kg",1.7 fold
same,increase of CD8 T cells versus vehicle,"CD8 T cells; spleen, 0.3 mg/kg",1.3 fold
same,increase of CD8 T cells versus vehicle,"CD8 T cells; spleen, 1 mg/kg",1.7 fold
same,increase of CD8 T cells versus vehicle,"CD8 T cells; spleen, 3 mg/kg",2.2 fold
same,CD8 T cell proliferation (Ki-67) change compared to vehicle,"CD8 T cells; spleen, high dose 3 mg/kg",6.9 fold
same,CD8 T cell proliferation (Ki-67) change compared to vehicle,"CD8 T cells; spleen, low dose 0.3 mg/kg",2.5 fold
same,CD8 T cell proliferation (Ki-67) change compared to vehicle,"CD8 T cells; spleen, mid dose 1 mg/kg",5.7 fold
same,efficacy (lung nodule inhibition) after NK cell depletion,"CT-26 cells; 0.3 mg/kg days 1, 5, 10, anti-asialo GM1",abolished when mice lacked NK cells
same,reduction in lung metastases in comparison to vehicle,"CT-26 cells; Example 13, i.v. days 1, 5, 10, dose not stated",65%
same,T1/2,[5],20 to 30 h
same,time with measurable concentrations in plasma,[5],greater than 1 week
mono-mPEG-SBA40K-IL-15 (Conjugate 1) (from UniProt P40933 49-162) (ligand),percent of the alpha receptor affinity of IL-15 retained,IL-15Rα:Fc [6],80%
same,Kd,IL-15Rα:Fc [7],0.209 nM
same,koff,IL-15Rα:Fc [8],0.000103 s⁻¹
same,kon,IL-15Rα:Fc [8],492000 M⁻¹ s⁻¹
